Experimental data published in EP0049801B1, “Sucrose-mutase, immobilized sucrose-mutase and use of this immobilized sucrose-mutase for the production of isomaltulose(6-O-alpha-D-glucopyranosido-D fructose)” (BAYER AG, priority 1980, dated 1982).

Test system: Saccharose-Mutase
Assay: Influence of ions on the enzymatic reaction
Assay type: biochemical, Protaminobacter rubrum
Procedure: Das freie Enzym wird bei Temperaturen > 40 °C rasch inaktiviert. Die Reaktion wird durch CU- + Zn-Ionen stark gehemmt.

Structure (SMILES)	Einfluß auf die enzymatische Aktivität
OB(O)O [Borat]	keinen Einfluß
[Cu+2] [CU]	stark gehemmt
